In patent publication US20080019910A1, “Cancer Treatment and Cancer Treatment Efficacy Prediction by Blocking and Detecting Protease Inhibitors” (priority 2004, published 2008):

Legend:
[1] = system: wild-type and PAI-1 gene-deficient fibrosarcoma cell lines; assay: Clonogenic assay (colony formation in soft agar); format: cell-based, mouse; details: PAI-1−/− versus wild type fibrosarcoma cells
Protocol: The cell lines described in Example 1 were used. The cells were in passage 35 (wild-type cells) and passage 50 (PAI-1 gene deficient cells). […] Gentle aspiration was repeated using a 1 ml syringe to achieve single cell suspension. 1 ml was then plated in triplicate in Petri dishes upon a feeder layer of SRBC (see separate paragraph for preparation of these). When the agar had solidified, 1 ml of media was added on top. 18-24 dishes were placed on plastic trays and two Petri dishes containing water were placed on each tray for conditioning. […] Colonies (>64 cells) were counted after 3 weeks. The experimental drugs were dissolved in media×300 the final concentration. […] Viable cells were counted after 8 minutes.

[2] = system: TIMP-1−/− and TIMP-1+/+ fibrosarcoma cells; assay: LDH release cytotoxicity assay; format: cell-based, mouse
Description: (§1) The damage of the plasma membrane is classically evaluated as a parameter for cell death. In vivo the plasma membrane of apoptotic cells persists until the cell is phagocytised. In contrast, necrotic cell death results in leakage of cytoplasm to the extracellular environment, which leads to an inflammatory response. Under cell culture conditions, cells that have been subjected to an apoptotic stimulus will initially die by apoptosis, but later shift into secondary necrosis due to lack of phagocytosis in the cell culture. Cytotoxicity or cell lysis can be measured by determining the release of lactate dehydrogenase (LDH) in the culture supernatant. For this purpose the “Cytotoxicity detection kit” (Roche, Mannheim, Germany) was employed.
TIMP-1−/− and TIMP-1+/+ fibrosarcoma cells (see above method for establishment of fibrosarcoma cells from mice) were seeded in a 96-well microtiter plate (2500 cells/well). After 24 hours, cells are treated with etoposide for 24 h. Fifty μl of culture supernatant (total: 200 μl) is transferred to a new 96-well microtiter plate and mixed with 50 μl of a substrate mix. The remaining supernatant is discarded, and the remaining intact cells are lysed by addition of 200 μl of lysis buffer (1% Triton-X100 in CM). […] The absorbance is measured on a spectrophotometer at λ1=490 nm and reference λ2=650 nm. […]

[3] = system: TIMP-1 +/+ and TIMP-1 −/− fibrosarcoma cell lines; assay: DNA-histone complex assay; format: cell-based, mouse
[4] = system: PAI-1 transfected PAI-1−/− fibrosarcoma cells; assay: LDH release after reintroduction of PAI-1 expression; format: cell-based, mouse; details: PAI-1−/−(PAI-1 pool) versus PAI-1−/− (vector pool) and parental PAI-1−/− cells
Protocol: Transfection of PAI-1−/− fibrosarcoma cells was performed by the use of Lipofectamine 2000 ([…]) according to the manufactures instructions employing 2×10^5 cells. After 2 days the cells were seed in tissue culture flasks and 100 μg/ml Hygromycin was added to the medium to select for transfected cells in pooled population. Experiments were performed 2 months after transfection. The sensitivity to apoptosis was measured by treating the cells with etoposide and TNF-α and detecting the LDH release as described in Example 4.

[5] = In vivo toxicity (weight loss, white blood cells) in PAI-1 +/+ and PAI-1 −/− mice; details: 75 mg/kg i.p.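 Note: nude META/Bom nu/nu mice of both sexes, 24-30 g, blood taken for hematology on day 3 (anticipated WBC nadir) and on day 5 after dosing.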
Protocol: We investigated the sensitivity of the intact mouse by a “comparison” of sensitivity between the PAI-I +/+ and −/− mice in terms of weight loss.
Furthermore blood was sampled on the day of expected nadir (day 3 (WBC)) and day 5, with hematological evaluation.
Mice: META™/Bom nu/nu; PAI-1+/+ and PAI-1 −/−. Size (gram): 24-30 grams females and males.
The drug was administered i.p., freshly made, relative to body weight, in a NaCl solvent (Batch 3036111) according to the following table:

[6] = system: PAI-1−/− fibrosarcoma cells; assay: LDH release cytotoxicity assay; format: cell-based, mouse; details: for LDH release (% of total activity): PAI-1−/− cells; for sensitivity to treatment (LDH release): PAI-1−/− compared with PAI-1+/+ fibrosarcoma cells; for cell lysis (LDH release): both PAI-1−/− and PAI-1+/+ fibrosarcoma cells
Description: as §1
(§2) PAI-1−/− and PAI-1+/+ fibrosarcoma cells were seeded in a 96-well microtiter plate (2500 cells/well). Fifty μl of culture supernatant (total: 200 μl) is transferred to a new 96-well microtiter plate and mixed with 50 μl of a substrate mix. The remaining supernatant is discarded, and the remaining intact cells are lysed by addition of 200 μl of lysis buffer (1% Triton-X100 in CM). After 30 min lysis at 37° C., 50 μl of lysate is transferred to a new 96-well microtiter plate and mixed with 50 μl of a substrate mix. The cell culture supernatant and lysate are incubated for 10 min with the substrate mix protected from light. The absorbance is measured on a spectrophotometer at λ1=490 nm and reference λ2=650 nm. The amount of released LDH in % is related to total amount: [formula] Results

[7] = system: PAI-1+/+ fibrosarcoma cells; assay: LDH release cytotoxicity assay; format: cell-based, mouse; details: PAI-1+/+ cells
Description: as §1, §2

Compound: Nc1ccn([C@@H]2O[C@H](CO)[C@@H](O)[C@@H]2O)c(=O)n1 [ARA-C]
- sensitivity in clonogenic assay (colony formation) [1]: significantly more sensitive

Compound: N.N.[Cl][Pt][Cl] [cisplatin]
- sensitivity in clonogenic assay (colony formation) [1]: significantly more sensitive

Compound: COc1cccc2c1C(=O)c1c(O)c3c(c(O)c1C2=O)C[C@@](O)(C(=O)CO)C[C@@H]3O[C@H]1C[C@H](N)[C@H](O)[C@H](C)O1 [doxorubicin]
- sensitivity in clonogenic assay (colony formation) [1]: significantly more sensitive

Compound: COc1cc([C@@H]2c3cc4c(cc3[C@@H](O[C@@H]3O[C@@H]5CO[C@@H](C)O[C@H]5[C@H](O)[C@H]3O)[C@H]3COC(=O)[C@H]23)OCO4)cc(OC)c1O [etoposide]
- sensitivity to treatment (LDH release) ([2]; TIMP-1−/− compared with TIMP-1+/+ fibrosarcoma cells): significantly more sensitive
- cell lysis (LDH release) ([2]; both TIMP-1−/− and TIMP-1+/+ fibrosarcoma cells): dose-dependent cell lysis
- apoptosis induction [3]: induced apoptosis
- resistance to induced cell death (LDH release) [4]: significantly more resistant
- day of WBC nadir ([5]; both genotypes): 3 days
- effect on white blood cell count (WBC) ([5]; both genotypes, p=0.0003): suppresses white blood cell count
- difference in WBC response between PAI-1 +/+ and PAI-1 −/− mice ([5]; p=0.99): no difference
- weight loss in treated mice ([5]; treated versus untreated, p<0.0001): significant loss of weight
- Drug induced effect on weight loss (weight, initial = 100) ([5]; PAI-1 +/+ female mice, 22.0 hours): 101.2
- Drug induced effect on weight loss (weight, initial = 100) ([5]; PAI-1 +/+ female mice, 44.5 hours): 98.3
- Drug induced effect on weight loss (weight, initial = 100) ([5]; PAI-1 +/+ female mice, 67.0 hours): 98.2
- Drug induced effect on weight loss (weight, initial = 100) ([5]; PAI-1 +/+ female mice, 93.5 hours): 98.4
- Drug induced effect on weight loss (weight, initial = 100) ([5]; PAI-1 +/+ female mice, 120.0 hours): 97.7
- Drug induced effect on weight loss (weight, initial = 100) ([5]; PAI-1 +/+ male mice, 22.0 hours): 97.6
- Drug induced effect on weight loss (weight, initial = 100) ([5]; PAI-1 +/+ male mice, 44.5 hours): 94.9
- Drug induced effect on weight loss (weight, initial = 100) ([5]; PAI-1 +/+ male mice, 67.0 hours): 92.9
- Drug induced effect on weight loss (weight, initial = 100) ([5]; PAI-1 +/+ male mice, 93.5 hours): 91.0
- Drug induced effect on weight loss (weight, initial = 100) ([5]; PAI-1 +/+ male mice, 120.0 hours): 91.8
- Drug induced effect on weight loss (weight, initial = 100) ([5]; PAI-1 −/− female mice, 22.0 hours): 99.9
- Drug induced effect on weight loss (weight, initial = 100) ([5]; PAI-1 −/− female mice, 44.5 hours): 99.1
- Drug induced effect on weight loss (weight, initial = 100) ([5]; PAI-1 −/− female mice, 67.0 hours): 99.6
- Drug induced effect on weight loss (weight, initial = 100) ([5]; PAI-1 −/− female mice, 93.5 hours): 98.7
- Drug induced effect on weight loss (weight, initial = 100) ([5]; PAI-1 −/− female mice, 120.0 hours): 100.3
- Drug induced effect on weight loss (weight, initial = 100) ([5]; PAI-1 −/− male mice, 22.0 hours): 99.1
- Drug induced effect on weight loss (weight, initial = 100) ([5]; PAI-1 −/− male mice, 44.5 hours): 96.3
- Drug induced effect on weight loss (weight, initial = 100) ([5]; PAI-1 −/− male mice, 67.0 hours): 96.4
- Drug induced effect on weight loss (weight, initial = 100) ([5]; PAI-1 −/− male mice, 93.5 hours): 95.6
- Drug induced effect on weight loss (weight, initial = 100) ([5]; PAI-1 −/− male mice, 120.0 hours): 97.0
- LDH release (% of total activity) ([6]; 1.25 μM etoposide, 48 h): 41.10%
- sensitivity to treatment (LDH release) [6]: significantly more sensitive
- cell lysis (LDH release) [6]: dose-dependent cell lysis
- LDH release (% of total activity) ([7]; 1.25 μM etoposide, 48 h): 1%
- sensitivity in clonogenic assay (colony formation) [1]: significantly more sensitive

Compound: CC[C@]1(O)C[C@H]2CN(CCc3c([nH]c4ccccc34)[C@@](C(=O)OC)(c3cc4c(cc3OC)N(C=O)[C@H]3[C@@](O)(C(=O)OC)[C@H](OC(C)=O)[C@]5(CC)C=CCN6CC[C@]43[C@@H]65)C2)C1 [vincristine]
- sensitivity in clonogenic assay (colony formation) [1]: significantly more sensitive

Compound: TNF-α
- resistance to induced cell death (LDH release) [4]: significantly more resistant
- LDH release (% of total activity) ([6]; 2.5 ng/ml TNF-α, 24 h): 46.3%
- sensitivity to treatment (LDH release) [6]: significantly more sensitive
- cell lysis (LDH release) [6]: dose-dependent cell lysis
- LDH release (% of total activity) ([7]; 2.5 ng/ml TNF-α, 24 h): 7.3%
